Patent publication US4221909A, “P-Acetamidobenzoic acid salts of 9-(hydroxyalkyl) purines” (Sloan-Kettering Institute for Cancer Research, priority 1978, dated 1980)
Values after ≈ are worked out from the molar mass of the structure shown.

Legend:
[1] = tested on: spleen cells; experiment: In vivo treatment of mice: effect on in vitro stimulation of spleen cell proliferation by Con A; design: species or system mice (Balb/C); conditions: oral, twice daily for 1 day; for response of spleen cells to Con A versus placebo: Con A 10 μg/ml; for subsequent response of the spleen cells, in vitro, to Con A stimulation: suboptimal Con A 5 μg/ml
Procedure: The purpose of this study was to determine the effects of in vivo treatment of mice with the compounds NPT 15392 and 15410 on the subsequent activity of spleen cells isolated from these animals and evaluated in vitro for their proliferative response to the mitogen, Concanavalin A (Con A).
Nine male Balb/C mice, 8-9 weeks old, weighing 18-20 gms were divided into three groups. One group was treated twice daily (for 1 day), in the morning and afternoon, with an oral dose of NPT 15392 at 10 mg/kg. The second group was similarly treated with NPT 15410 at 20 mg/kg. A third group, dosed with saline served as a placebo control.
The following day, each group was sacrificed and the spleens removed and pooled. The spleens were minced and the cells washed in RPMI-1640 medium (Grand Island Biologicals) supplemental with 2 mm glutamine and antibiotics. The cell concentration of each preparation was determined by a Coulter counter and adjusted to 5×10^6 cells/ml with RPMI medium.
Microtiter assays were carried out in 0.2 ml incubations, containing 5×10^5 cells and Con A or Con A and compounds at the indicated concentrations. All assays were performed with 6 replicates and compared with a blank assay containing only cells. The assay plates were incubated at 37° in 5% CO2 for 4 days. During the final 18-20 hours of incubation, 0.5 ml of ^3 HTdR (10 μCi/ml, 6 Ci /m mole) were added to each culture. The cultures were harvested with a multiple automatic sample harvester (MASH) unit and the incorporated ^3 HTdR determined with a Beckman LS 8000 liquid scintillation counter, as a measure of cell proliferation. The results are tabulated as the ratio of the activity in the Con A or Con A and compound treated cultures to the blank cultures.

[2] = tested on: herpes hominis type 2; experiment: Anti-Herpes Activity (Plaque Assay); assay type: cell-based; conditions: concentrations less than 100 μg/ml
From the text: The infection of tissue culture cells by Herpes virus causes cell lysis. After a period of time these lysed cells are visualized as a tiny clear area (plaque) on a layer of cells. The incorporation of a test substance into the media will reduce the number of plaques if it is capable of preventing virus replication. The method is as follows:
There was employed herpes hominis type 2 purchased from American Type Culture Collection (ATCC), Bethesda, Md., ATCC #VR 540, Lot 3D. The lyophilized viral suspension was reconstituted with 1 ml sterile distilled H2 O. The virus was passed twice through HeLa-cell monolayers. The tissue-culture supernates were pooled, dispensed in 1-ml aliquots, and stored at -70° C.
Vero cells in log-growth phase were subcultured at a concentration of 1×10^5 cells/ml in 50-ml Falcon flasks in Eagle's Minimum Essential Medium (MEM), supplemented with 10% fetal calf serum (FCS) and antibiotics. Media were changed the day following planting. […]
Agarose was prepared at a concentration of 6% w/v in 50 ml PBS. […] In addition, a 1:10 dilution of pooled human anti-herpes sera was readied. […]
Plaques were counted either directly by transmitted fluorescent light and macroviewing, or by the use of light microscopy for microplaques. Microplaques were counted by averaging three fields per experimental group under 150× magnification.

[3] = Phase solubility studies; assay type: physicochemical; conditions: constant pH
From the text: This is indicative of an interaction occuring in solution to yield a complex.

[4] = tested on: L-1210 cells; experiment: Anti-Leukemic Activity (Inhibition of L-1210 Growth); assay type: cell-based, mouse
Procedure: Leukemic cells isolated from mice bearing the L-1210 tumor are cultured in vitro and their growth can be measured by counting the number of cells in the culture over a period of time. The incorporation of a test substance into the media will prevent the growth of the leukemic cells, an indication of an effective anti-leukemic agent.
Check to see that there is adequate cell growth in the stock cultures. Use cells 48-72 hours after transfers are done.
Weigh out the drugs at 50 times the desired final concentration and made serial dilutions.
Make up the final medium using 500 mls McCoy's 5A medium, 15% fetal calf serum, 5 mls penicillin-streptomycin solution, and 5 mls antibiotic-antimycotic solution and let it stand at room temperature.
Using sterile technique, add 0.1 ml of the drug dilutions to each tube.
Add an appropriate quantity of cells to the prepared medium. After mixing, remove a 0.5 ml sample, place it in a vial containing […] of saline, and count it on the Coulter Counter. Multiply the count by 40 to compensate for the 40 fold dilution (0.5 ml into […] and record the inoculum.
Add 5 mls of cell suspension to each tube. Swirl the bottle every 4 tubes to insure a more uniform distribution of cells.
Tighten the caps and place in the CO2 incubator at 36°-38° for 96 hours. […]

| SMILES | response of spleen cells to Con A versus placebo [1] | subsequent response of the spleen cells, in vitro, to Con A stimulation [1] | reduction of plaque formation caused by Herpes Simplex virus [2] [%] | solubility at increasing concentrations of DIP.PAcBA [3] | IC50 ([4]; Mus musculus, L1210, 96 h, 96 hours, text: μg/ml, read-out: I50 (concentration of drug inhibiting growth of L-1210)) [µg/mL] | DIP.PAcBA potentiation of Anti-Leukemia activity ([4]; DIP.PAcBA salt vs parent compound) |
| --- | --- | --- | --- | --- | --- | --- |
| CCCCCC[C@H]([C@H](C)O)n1cnc2c(=O)[nH]cnc21 (relative stereo) [NPT 15392, Erythro-9-(2-Hydroxy-3-Nonyl)Hypoxanthine] | No significant differences | increases the subsequent response of the spleen cells | > 90 | increased solubility |  |  |
| CCCCCCC(CO)n1cnc2c(=O)[nH]cnc21 (centres unmarked) [NPT 15417] |  |  |  |  | 47 (≈ 178 µM) |  |
| CCCCCC[C@H]([C@H](C)O)n1cnc2c(=O)[nH]cnc21 (relative stereo) [NPT 15410] | No significant differences | increases the subsequent response of the spleen cells |  |  |  | Yes |
